From patent US8481544B2, “Antibacterial compositions” (Biota Europe Limited, priority 2006, dated 2013)
In brackets after ≈: the same amount, converted by molar mass.

These molecules were tested on Enterococcus faecalis ATCC 29212 (assay: MIC against Enterococcus faecalis ATCC 29212). Settings: ATCC29212; Enterococcus faecalis ATCC 29212; read-out: MICs against Enterococcus faecalis, Activity.
Assay type: cell-based
Method: Institute. Methods for Dilution Antimicrobial Susceptibility Tests for Bacteria That Grow Aerobically; Approved Standard—Seventh Edition. Document M7-A7. CLSI, Wayne, Pa., 2006; Clinical Laboratories and Standards Institute. Methods for Antimicrobial Susceptibility Testing of Anaerobic Bacteria; Approved Standard—Sixth Edition. Document M11-A6. CLSI, Wayne, Pa., 2004).
Compounds of this invention were tested for antimicrobial activity by susceptibility testing in liquid or on solid media. MICs for compounds against each strain were determined by the broth microdilution or agar dilution method according to the guidelines of the Clinical Laboratories and Standards Institute, formerly the National Committee for Clinical Laboratory Standards (Clinical Laboratories and Standards Institute. Methods for Dilution Antimicrobial Susceptibility Tests for Bacteria That Grow Aerobically; Approved Standard—Seventh Edition. Document M7-A7. CLSI, Wayne, Pa., 2006; Clinical Laboratories and Standards Institute. Methods for Antimicrobial Susceptibility Testing of Anaerobic Bacteria; Approved Standard—Sixth Edition. Document M11-A6. CLSI, Wayne, Pa., 2004).

Structure (SMILES) | MIC [µg/mL]
CCNC(=O)Nc1nc2cc(-c3cnccn3)cc(-c3cnc(N)nc3)c2s1 [Example 73, 1-[7-(2-Amino-pyrimidin-5-yl)-5-pyrazin-2-yl-benzothiazol-2-yl]-3-ethyl-urea] | 2 to 16 (≈ 5.1 to 40.8 µM)
CCNC(=O)Nc1nc2cc(-c3cccnc3)cc(-c3cccc(C)n3)c2s1 [Example 177, 1-Ethyl-3-[7-(6-methyl-pyridin-2-yl)-5-pyridin-3-yl-benzothiazol-2-yl]-urea] | < 0.25
CCNC(=O)Nc1nc2cc(-c3cccnc3)cc(NC(=O)NCC)c2s1 [Example 150, 1-Ethyl-3-[2-(3-ethyl-ureido)-5-pyridin-3-yl-benzothiazol-7-yl]-urea] | 2 to 16 (≈ 5.2 to 41.6 µM)
CCNC(=O)Nc1nc2cc(-c3cccnc3C)cc(-c3ccccn3)c2s1 [Example 52, 1-Ethyl-3-[5-(2-methyl-pyridin-3-yl)-7-pyridin-2-yl-benzothiazol-2-yl]-urea] | 0.25 to 1 (≈ 0.642 to 2.57 µM)
CCNC(=O)Nc1nc2cc(-c3cccnc3)cc(-c3cc(C)ccn3)c2s1 [Example 176, 1-Ethyl-3-[7-(4-methyl-pyridin-2-yl)-5-pyridin-3-yl-benzothiazol-2-yl]-urea] | < 0.25
CCNC(=O)Nc1nc2cc(-c3ccc(C)nc3)cc(-c3ccccn3)c2s1 [Example 41, 1-Ethyl-3-[5-(6-methyl-pyridin-3-yl)-7-pyridin-2-yl-benzothiazol-2-yl]-urea] | < 0.25
CCNC(=O)Nc1nc2cc(-c3cncc(C#N)c3)cc(-c3cccnc3)c2s1 [Example 24, 1-[5-(5-Cyano-pyridin-3-yl)-7-pyridin-3-yl-benzothiazol-2-yl]-3-ethyl-urea] | 0.25 to 1 (≈ 0.624 to 2.5 µM)
CCNC(=O)Nc1nc2cc(-c3cccnc3)cc(-c3ccnc(N)n3)c2s1 [Example 114, 1-[7-(2-Amino-pyrimidin-4-yl)-5-pyridin-3-yl-benzothiazol-2-yl]-3-ethyl-urea] | < 0.25
CCNC(=O)Nc1nc2cc(-c3cccnc3)cc(-c3csc(O)n3)c2s1 [Example 172, 1-Ethyl-3-[7-(2-hydroxy-thiazol-4-yl)-5-pyridin-3-yl-benzothiazol-2-yl]-urea] | 2 to 16 (≈ 5.03 to 40.3 µM)
CCNC(=O)Nc1nc2cc(-c3cccnc3)cc(-c3ccc(N)cn3)c2s1 [Example 99, 1-[7-(5-Amino-pyridin-2-yl)-5-pyridin-3-yl-benzothiazol-2-yl]-3-ethyl-urea] | < 0.25
CCNC(=O)Nc1nc2cc(-c3ccc(C(=O)OC)nc3)cc(-c3cccnc3)c2s1 [Example 26, 5-[2-(3-Ethyl-ureido)-7-pyridin-3-yl-benzothiazol-5-yl]-pyridine-2-carboxylic acid methyl ester] | 0.25 to 1 (≈ 0.577 to 2.31 µM)
CCNC(=O)Nc1nc2cc(-c3cnc(N)nc3)cc(-c3ccccn3)c2s1 [Example 154, 1-[5-(2-Amino-pyrimidin-5-yl)-7-pyridin-2-yl-benzothiazol-2-yl]-3-ethyl-urea] | < 0.25
CCNC(=O)Nc1nc2cc(-c3cnc(N(C)C)nc3)cc(-c3cccnc3)c2s1 [Example 25, 1-[5-(2-Dimethylamino-pyrimidin-5-yl)-7-pyridin-3-yl-benzothiazol-2-yl]-3-ethyl-urea] | 0.25 to 1 (≈ 0.596 to 2.38 µM)
CCNC(=O)Nc1nc2cc(-c3cccnc3)cc(N)c2s1 [Example 149, 1-(7-Amino-5-pyridin-3-yl-benzothiazol-2-yl)-3-ethyl-urea] | 2 to 16 (≈ 6.38 to 51.1 µM)
CCNC(=O)Nc1nc2cc(-c3cccnc3)cc(-c3ncccc3C(F)(F)F)c2s1 [Example 128, 1-Ethyl-3-[5-pyridin-3-yl-7-(3-trifluoromethyl-pyridin-2-yl)-benzothiazol-2-yl]-urea] | 0.25 to 1 (≈ 0.564 to 2.26 µM)
CCNC(=O)Nc1nc2cc(-c3ccnc(O)c3)cc(-c3ccccn3)c2s1 [Example 56, 1-Ethyl-3-[5-(2-hydroxy-pyridin-4-yl)-7-pyridin-2-yl-benzothiazol-2-yl]-urea] | 0.25 to 1 (≈ 0.639 to 2.55 µM)
CCNC(=O)Nc1nc2cc(-c3ccc(O)nc3)cc(-c3cccnc3)c2s1 [Example 16, 1-Ethyl-3-[5-(6-hydroxy-pyridin-3-yl)-7-pyridin-3-yl-benzothiazol-2-yl]-urea] | 2 to 16 (≈ 5.11 to 40.9 µM)
CCNC(=O)Nc1nc2cc(-c3cnccn3)cc(-c3cccnc3)c2s1 [Example 43, 1-Ethyl-3-(5-pyrazin-2-yl-7-pyridin-3-yl-benzothiazol-2-yl)-urea] | 0.25 to 1 (≈ 0.664 to 2.66 µM)
CCNC(=O)Nc1nc2cc(-c3cccnc3)cc(-c3cnn(C)c3)c2s1 [Example 83, 1-Ethyl-3-[7-(1-methyl-1H-pyrazol-4-yl)-5-pyridin-3-yl-benzothiazol-2-yl]-urea] | 0.25 to 1 (≈ 0.661 to 2.64 µM)
CCNC(=O)Nc1nc2cc(-c3ccc(NC(C)=O)nc3)cc(-c3ccc(C#N)cn3)c2s1 [Example 136, N-{5-[7-(5-Cyano-pyridin-2-yl)-2-(3-ethyl-ureido)-benzothiazol-5-yl]-pyridin-2-yl}-acetamide] | < 0.25

Structure (SMILES) | MIC [µg/mL]
CCNC(=O)Nc1nc2cc(-c3ccc(N4CCN(C)CC4)nc3)cc(-c3cccnc3)c2s1 [Example 23, 1-Ethyl-3-{5-[6-(4-methyl-piperazin-1-yl)-pyridin-3-yl]-7-pyridin-3-yl-benzothiazol-2-yl}-urea] | 2 to 16 (≈ 4.22 to 33.8 µM)
CCNC(=O)Nc1nc2cc(-c3cncc(OC)c3)cc(-c3ccccn3)c2s1 [Example 179, 1-Ethyl-3-[5-(5-methoxy-pyridin-3-yl)-7-pyridin-2-yl-benzothiazol-2-yl]-urea] | < 0.25
CCNC(=O)Nc1nc2cc(I)cc(-c3cccnc3)c2s1 [Example 8, 1-Ethyl-3-(5-iodo-7-pyridin-3-yl-benzothiazol-2-yl)-urea] | 2 to 16 (≈ 4.71 to 37.7 µM)
CCNC(=O)Nc1nc2cc(-c3cccnc3)cc(-c3nc(C)ccc3C#N)c2s1 [Example 103, 1-[7-(3-Cyano-6-methyl-pyridin-2-yl)-5-pyridin-3-yl-benzothiazol-2-yl]-3-ethyl-urea] | < 0.25
CCNC(=O)Nc1nc2cc(Br)cc(-c3cccnc3)c2s1 [Example 2, 1-(5-Bromo-7-pyridin-3-yl-benzothiazol-2-yl)-3-ethyl-urea] | 2 to 16 (≈ 5.3 to 42.4 µM)
CCNC(=O)Nc1nc2cc(-c3cccnc3)cc(-c3ccc(OC)cc3)c2s1 [Example 84, 1-Ethyl-3-[7-(4-methoxy-phenyl)-5-pyridin-3-yl-benzothiazol-2-yl]-urea] | 0.25 to 1 (≈ 0.618 to 2.47 µM)
CCNC(=O)Nc1nc2cc(-c3cccnc3)cc(-c3ccc(CN4CCOCC4)cn3)c2s1 [Example 120, 1-Ethyl-3-[7-(5-morpholin-4-ylmethyl-pyridin-2-yl)-5-pyridin-3-yl-benzothiazol-2-yl]-urea] | 0.25 to 1 (≈ 0.527 to 2.11 µM)
CCNC(=O)Nc1nc2cc(-c3ccc(NC(=O)CNC(C)(C)C)nc3)cc(-c3ccccn3)c2s1 [Example 55, 2-tert-Butylamino-N-{5-[2-(3-ethyl-ureido)-7-pyridin-2-yl-benzothiazol-5-yl]-pyridin-2-yl}-acetamide] | 0.25 to 1 (≈ 0.496 to 1.99 µM)
CCNC(=O)Nc1nc2cc(-c3cccnc3)cc(-c3cccc(O)n3)c2s1 [Example 173, 1-Ethyl-3-[7-(6-hydroxy-pyridin-2-yl)-5-pyridin-3-yl-benzothiazol-2-yl]-urea] | 2 to 16 (≈ 5.11 to 40.9 µM)
CCNC(=O)Nc1nc2cc(-c3cccc(F)c3)cc(-c3cccnc3)c2s1 [Example 28, 1-Ethyl-3-[5-(3-fluoro-phenyl)-7-pyridin-3-yl-benzothiazol-2-yl]-urea] | 0.25 to 1 (≈ 0.637 to 2.55 µM)
CCNC(=O)Nc1nc2cc(-c3cncnc3)cc(-c3ccccn3)c2s1 [Example 35, 1-Ethyl-3-(7-pyridin-2-yl-5-pyrimidin-5-yl-benzothiazol-2-yl)-urea] | < 0.25
CCNC(=O)Nc1nc2cc(-c3cccnc3)cc(-c3ncccc3OC)c2s1 [Example 118, 1-Ethyl-3-[7-(3-methoxy-pyridin-2-yl)-5-pyridin-3-yl-benzothiazol-2-yl]-urea] | < 0.25
CCNC(=O)Nc1nc2cc(-c3cccnc3)cc(-c3ccccc3F)c2s1 [Example 75, 1-Ethyl-3-[7-(2-fluoro-phenyl)-5-pyridin-3-yl-benzothiazol-2-yl]-urea] | 0.25 to 1 (≈ 0.637 to 2.55 µM)
CCNC(=O)Nc1nc2cc(-c3cccnc3)cc(-c3cnccn3)c2s1 [Example 101, 1-Ethyl-3-(7-pyrazin-2-yl-5-pyridin-3-yl-benzothiazol-2-yl)-urea] | < 0.25
CCNC(=O)Nc1nc2cc(-c3cncc(N4CCN(C)CC4)c3)cc(-c3ccccn3)c2s1 [Example 62, 1-Ethyl-3-{5-[5-(4-methyl-piperazin-1-yl)-pyridin-3-yl]-7-pyridin-2-yl-benzothiazol-2-yl}-urea] | 0.25 to 1 (≈ 0.528 to 2.11 µM)
CCNC(=O)Nc1nc2cc(Br)cc(-c3ccc(N)nc3)c2s1 [Example 1, 1-[7-(6-Amino-pyridin-3-yl)-5-bromo-benzothiazol-2-yl]-3-ethyl-urea] | 2 to 16 (≈ 5.1 to 40.8 µM)
CCNC(=O)Nc1nc2cc(-c3ccn(C)c(=O)c3)cc(-c3cccnc3)c2s1 [Example 47, 1-Ethyl-3-[5-(1-methyl-2-oxo-1,2-dihydro-pyridin-4-yl)-7-pyridin-3-yl-benzothiazol-2-yl]-urea] | 0.25 to 1 (≈ 0.617 to 2.47 µM)
CCNC(=O)Nc1nc2cc(-c3ccc(NC(C)=O)nc3)cc(-c3cccnc3)c2s1 [Example 20, N-{5-[2-(3-Ethyl-ureido)-7-pyridin-3-yl-benzothiazol-5-yl]-pyridin-2-yl}-acetamide] | 0.25 to 1 (≈ 0.578 to 2.31 µM)
CCNC(=O)Nc1nc2cc(-c3ccc(CCO)nc3)cc(-c3ccccn3)c2s1 [Example 58, 1-Ethyl-3-{5-[6-(2-hydroxy-ethyl)-pyridin-3-yl]-7-pyridin-2-yl-benzothiazol-2-yl}-urea] | < 0.25
CCNC(=O)Nc1nc2cc(-c3cccnc3)cc(-c3nccn3C)c2s1 [Example 162, 1-Ethyl-3-[7-(1-methyl-1H-imidazol-2-yl)-5-pyridin-3-yl-benzothiazol-2-yl]-urea] | 2 to 16 (≈ 5.28 to 42.3 µM)
